System: adjuvant-induced arthritis (Mycobacterium butyricum) in female Lewis rats
Assay: Development and severity of adjuvant-induced arthritis in female Lewis rats (paw volumes, radiographic scores)
Type: in vivo
Details: for Radiographic total scores of secondary paws compared with vehicle treated rats, in words: day 21, secondary paws; for Radiographic scores, Primary paws / Radiographic scores, Secondary paws / Increase in primary foot volume, Day 21 / Increase in secondary foot volume, Day 21: day 21; for Radiographic scores, Primary paws / Radiographic scores, Secondary paws: total score, maximum 26 per foot, high score = high inflammation, thrombin inhibitor 50 mg/kg/day, Indomethacin 1 mg/kg/day oral; for Increase in primary foot volume, Day 14 / Increase in primary foot volume, Day 21: primary (adjuvant-injected) paw; for Increase in primary foot volume, Day 14 / Increase in primary foot volume, Day 21 / Increase in secondary foot volume, Day 14 / Increase in secondary foot volume, Day 21: oral gavage daily, thrombin inhibitor 50 mg/kg, Indomethacin 1 mg/kg; for Increase in primary foot volume, Day 14: mercury displacement plethysmography; for Increase in secondary foot volume, Day 14 / Increase in secondary foot volume, Day 21: secondary (contralateral, not injected) paw
Experimental: The thrombin inhibitor 3-(2-phenylethylamino)-6-methyl-1-(2-amino-6-methyl-5-methylene-carboxamidomethylpyridinyl)-2-pyrazinone was evaluated to determine its effect on induced arthritis. Arthritis was induced by injection of female Lewis rats with Mycobacterium butyricum. The effect of the thrombin inhibitor was compared with the effect of Indomethacin and the effect of a vehicle control.
Fifty 7.5 week old female Lewis rats (body weight 149-174 grams) were included in the study. Forty rats were each injected with an emulsion containing 0.5 mg of Mycobacterium butyricum in 0.1 ml of light mineral oil, and a negative control group of 10 rats was not injected with adjuvant.
Ten of the rats receiving Mycobacterium butyricum further received Indomethacin by oral gavage at a total daily dose of 1 mg/kg. Ten of the rats receiving Mycobacterium butyricum further received the thrombin inhibitor by oral gavage at a total daily dose of 50 mg/kg. Twenty of the rats receiving Mycobacterium butyricum further received a vehicle control of sterile distilled water.
Body weights, primary and secondary paw volumes, and lateral radiographs were determined before and at various time points including 21 days following adjuvant injection. The primary paw was injected with the Mycobacterium butyricum while the secondary (contralateral) paw was not injected. Paw volumes were determined by mercury displacement plethysmography. Lateral radiographs were obtained under Ketamine and Xylazine anesthesia.
Radiographs were made of both hind paws on days 0 and 21 and evaluated for changes in the soft and hard tissues. The following radiographic changes were graded numerically according to severity:increased soft tissue volume (0-4), narrowing or widening of joint spaces ([…]), subchondral erosion (0-3), periosteal reaction (0-4), osteolysis (0-4), subluxation (0-3), and degenerative joint changes (0-3). The maximum possible score for each foot was 26. High scores correspond with high levels of inflammation.

COc1ccc2c(c1)c(CC(=O)O)c(C)n2C(=O)c1ccc(Cl)cc1 [Indomethacin, reference compound]
Radiographic total scores of primary paws compared with vehicle treated rats, in words (day 21, primary paws, versus vehicle): significantly less
Radiographic total scores of secondary paws compared with vehicle treated rats, in words (versus vehicle): significantly less
Radiographic scores, Primary paws: 4.6 ± 1.6
Radiographic scores, Secondary paws: 3.5 ± 1.4
Increase in primary foot volume, Day 14: 726 ± 174 µL
Increase in primary foot volume, Day 21: 622 ± 156 µL
Increase in secondary foot volume, Day 14: 246 ± 162 µL
Increase in secondary foot volume, Day 21: 253 ± 138 µL

Cc1nc(N)ccc1CNC(=O)Cn1c(C)cnc(NCCc2ccccc2)c1=O [Thrombin inhibitor, 3-(2-phenylethylamino)-6-methyl-1-(2-amino-6-methyl-5-methylene-carboxamidomethylpyridinyl)-2-pyrazinone]
Radiographic total scores of secondary paws compared with vehicle treated rats, in words (versus vehicle): significantly less
Radiographic scores, Primary paws: 14.0 ± 3.3
Radiographic scores, Secondary paws: 3.8 ± 3.79
Increase in primary foot volume, Day 14: 1591 ± 318 µL
Increase in primary foot volume, Day 21: 1997 ± 605 µL
Effect on the primary paw (foot volume), in words (primary paw, thrombin inhibitor 50 mg/kg/day oral gavage): insignificant effect
Increase in secondary foot volume, Day 14: 382 ± 312 µL
Increase in secondary foot volume, Day 21: 704 ± 289 µL
Anti-inflammatory effect on the secondary paw (foot volume), in words (secondary paw, thrombin inhibitor 50 mg/kg/day oral gavage): significant anti-inflammatory effect

Reference: patent US6362190B1, “Method for treating inflammatory diseases by administering a thrombin inhibitor” (Merck & Co., Inc., priority 1998, dated 2002)
